From PubChem BioAssay (NCI)
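A five-concentration, 48-hour dose response in 96-well plates underlies each endpoint, interpolated linearly between surrounding concentrations. Abbreviation: GI50, concentration required for 50% inhibition of growth. TGI denotes the concentration required for complete inhibition of growth.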

What follows are molecules tested on SN12C renal (assay: NCI tumour cell line growth inhibition, 48 h).

Row | Compound | GI50 | TGI
1 | O=C1C(C(Nc2ccccc2)c2ccccc2)=C([O-])c2ccccc21.O=C1C(C(Nc2ccccc2)c2ccccc2)=C([O-])c2ccccc21.[Cu+2] (stereo unspecified) | 41.5 µM | > 100 µM
2 | CN(C)CC1CCC/C1=N/OC(=O)c1ccccc1 (stereo unspecified) | – | > 100 µM
3 | CCOC(=O)C1Sc2ccccc2N=C1C (stereo unspecified) | – | > 100 µM
4 | C/C=C/[C@@H]1O[C@@H]2COC(=O)C2=C[C@@H]1O | 15.4 µM | 31.4 µM
5 | O=C(NC1C=CCC2C(=O)N(c3ccccc3)C(=O)C12)OCc1ccccc1 (stereo unspecified) | – | > 100 µM
6 | Cc1[cH-]c(=O)n(-c2ccccc2)n1.[Au+].[Au].c1ccc([PH+](c2ccccc2)c2ccccc2)cc1.c1ccc([PH+](c2ccccc2)c2ccccc2)cc1 | 37.5 µM | > 100 µM
7 | CC(=O)OCc1ccc2c(c1)C(O)NC(=O)O2 (stereo unspecified) | – | > 100 µM
8 | CC1(C)CC(c2c[nH]c3ccccc23)=CC2=Nc3ccccc3C21O (stereo unspecified) | – | > 100 µM
9 | CN1C(=O)C(=O)N2c3ccc(Cl)cc3C3(c4ccccc4)N=CC12O3 (stereo unspecified) | – | 13.7 µM
10 | COc1ccc(CN2C(=O)C(Cl)=C(Nc3cccc(C(F)(F)F)c3)C2=O)cc1 | 12.4 µM | 30.8 µM
11 | N#CCCC[Si]12OCCN(CCO1)CCO2 | – | > 100 µM
12 | O=C(/C=C/c1c(O)ccc2ccccc12)c1ccc([N+](=O)[O-])cc1 | – | 39.7 µM
13 | CN1CCN(c2ccc(Nc3ncc(Cl)c(NC[C@@H]4CCCO4)n3)cc2)CC1 | 1.13 µM | > 100 µM

The molecules below were run on OVCAR-5 ovarian (assay: NCI tumour cell line growth inhibition, 48 h).

Row | Compound | TGI | GI50
14 | C[C@@]1(O)CC[C@]2(C)C3CCCC3[C@H]12 (stereo partly specified) | > 100 µM | –
15 | CC[C@@H](c1ccc(O)c(O)c1)[C@@H](CC)c1ccc(O)c(O)c1 | 37.8 µM | 19.5 µM
16 | CC(=O)[O-].CC(=O)[O-].O=C(N/N=C/c1cc(Cl)cc(Cl)c1O)c1ccncc1.[Cu+2] | > 100 µM | –
17 | O=C(Nc1nc(=S)[nH][nH]1)C(=O)C(C(=O)c1ccc2ccccc2c1)C1OC(=O)c2ccccc21 (stereo unspecified) | > 100 µM | –
18 | CN(C)CC(O)c1ccc(/C=C/c2ccc(Cl)cc2)cc1 (stereo unspecified) | 3.59 µM | 1.72 µM
19 | Cc1nnc2ccnn2c1C | 34.6 µM | 17.6 µM
20 | CCOC(=O)C1=C(C)N(NC(=O)Nc2ccccc2)C2(N)N(NC(=O)Nc3ccccc3)C(C)=C(C(=O)OCC)C12C(=O)OCC (stereo unspecified) | > 100 µM | –
21 | CCCCCCCCCCSC(=N)N (tested in a mixture with another compound) | 32.7 µM | 13.1 µM
22 | O=C(O)CSc1n[nH]c(-c2ccccc2O)n1 | > 100 µM | –
23 | Cc1nc(-c2nc(C)c(C(=O)NNC(=O)C[n+]3ccccc3)s2)sc1C(=O)NNC(=O)C[n+]1ccccc1 | > 100 µM | –
24 | CN(C)C=Nc1nc(=O)n(C2CCC(CO)O2)cc1F (stereo unspecified) | > 100 µM | –
25 | O=c1[nH]c(-c2ccccc2)nc2cc(Cl)ccc12 | > 100 µM | –
26 | CCCOc1nc(N)c2cnn(C3CCCCO3)c2n1 (stereo unspecified) | > 100 µM | –
27 | C/C(CN1C(=O)c2ccccc2C1=O)=N\NS(=O)(=O)c1ccc(Cl)cc1 | > 100 µM | –
28 | O=C(Nc1cccc(C(F)(F)F)c1)Nc1cccc(C(F)(F)F)c1 | 14.8 µM | 3.24 µM
29 | COc1ccc(/C=C/COC(C)=O)cc1OC | > 100 µM | –
30 | C=C(C)C(=O)O[C@@H]1C[C@@]2(C)O[C@@H]2C[C@H](O)/C(C)=C/[C@H]2OC(=O)C(=C)[C@@H]21 | > 100 µM | –

Row | Compound | TGI | GI50
31 | CC(=O)OC1(C)N=NC2(CCCCC2)O1 (stereo unspecified) | > 100 µM | –
32 | Cc1ccc(-c2nc(N3CCNCC3)c3oc(-c4ccc(C)cc4)nc3n2)cc1 | 17.9 µM | 5.21 µM
33 | [O-][Cl+3]([O-])([O-])[O-].[O]=[Ru]=[O].c1ccc(-c2ccccn2)nc1.c1ccc(-c2ccccn2)nc1 | > 100 µM | > 100 µM
34 | Cc1ccc(NC2=C3CCCCC3OC2=O)cc1 (stereo unspecified) | > 100 µM | > 100 µM
35 | CN(C)CC1CCC/C1=N/OC(=O)c1ccccc1 (stereo unspecified) | > 100 µM | –
36 | CCOC(=O)C1Sc2ccccc2N=C1C (stereo unspecified) | > 100 µM | –
37 | C/C=C/[C@@H]1O[C@@H]2COC(=O)C2=C[C@@H]1O | 37.1 µM | 19.2 µM
38 | O=C(NC1C=CCC2C(=O)N(c3ccccc3)C(=O)C12)OCc1ccccc1 (stereo unspecified) | > 100 µM | –
39 | Cc1[cH-]c(=O)n(-c2ccccc2)n1.[Au+].[Au].c1ccc([PH+](c2ccccc2)c2ccccc2)cc1.c1ccc([PH+](c2ccccc2)c2ccccc2)cc1 | > 100 µM | > 100 µM
40 | CC(=O)OCc1ccc2c(c1)C(O)NC(=O)O2 (stereo unspecified) | > 100 µM | –
41 | CC1(C)CC(c2c[nH]c3ccccc23)=CC2=Nc3ccccc3C21O (stereo unspecified) | > 100 µM | –
42 | CN1C(=O)C(=O)N2c3ccc(Cl)cc3C3(c4ccccc4)N=CC12O3 (stereo unspecified) | 20 µM | –
43 | COc1ccc(CN2C(=O)C(Cl)=C(Nc3cccc(C(F)(F)F)c3)C2=O)cc1 | 48.7 µM | 18 µM
44 | N#CCCC[Si]12OCCN(CCO1)CCO2 | > 100 µM | –
45 | O=C(/C=C/c1c(O)ccc2ccccc12)c1ccc([N+](=O)[O-])cc1 | > 100 µM | –
46 | CN1CCN(c2ccc(Nc3ncc(Cl)c(NC[C@@H]4CCCO4)n3)cc2)CC1 | > 100 µM | 1.18 µM

Each molecule was assayed on NCI/ADR-RES ovarian (assay: NCI tumour cell line growth inhibition, 48 h).

Row | Compound | GI50 | TGI
47 | CC[C@@H](c1ccc(O)c(O)c1)[C@@H](CC)c1ccc(O)c(O)c1 | 10.1 µM | 62.7 µM
48 | C#Cc1cccc(Nc2nc3cc([N+](=O)[O-])ccc3nc2Nc2ccc(O)cc2)c1 | 1.84 µM | 4.37 µM
49 | CN(C)CC(O)c1ccc(/C=C/c2ccc(Cl)cc2)cc1 (stereo unspecified) | 1.67 µM | 3.19 µM
50 | Cc1nnc2ccnn2c1C | 20.5 µM | 43.4 µM
51 | CCCCCCCCCCSC(=N)N (tested in a mixture with another compound) | 6.29 µM | 25.6 µM
52 | O=C(Nc1cccc(C(F)(F)F)c1)Nc1cccc(C(F)(F)F)c1 | 0.651 µM | 4.84 µM
53 | C=C(C)C(=O)O[C@@H]1C[C@@]2(C)O[C@@H]2C[C@H](O)/C(C)=C/[C@H]2OC(=O)C(=C)[C@@H]21 | – | > 100 µM
54 | CC(=O)OC1(C)N=NC2(CCCCC2)O1 (stereo unspecified) | – | > 100 µM
55 | Cc1ccc(-c2nc(N3CCNCC3)c3oc(-c4ccc(C)cc4)nc3n2)cc1 | 2 µM | 3.81 µM
56 | Cc1ccc(NC2=C3CCCCC3OC2=O)cc1 (stereo unspecified) | > 100 µM | > 100 µM
57 | C/C=C/[C@@H]1O[C@@H]2COC(=O)C2=C[C@@H]1O | 25.9 µM | 60.5 µM
58 | CC(=O)OCc1ccc2c(c1)C(O)NC(=O)O2 (stereo unspecified) | – | > 100 µM
59 | COc1ccc(CN2C(=O)C(Cl)=C(Nc3cccc(C(F)(F)F)c3)C2=O)cc1 | 7.43 µM | 45.6 µM
60 | CN1CCN(c2ccc(Nc3ncc(Cl)c(NC[C@@H]4CCCO4)n3)cc2)CC1 | 3.15 µM | > 100 µM

What follows are molecules tested on SK-MEL-2 melanoma (assay: NCI tumour cell line growth inhibition, 48 h).

Row | Compound | TGI | GI50
61 | C[C@@]1(O)CC[C@]2(C)C3CCCC3[C@H]12 (stereo partly specified) | > 100 µM | –
62 | CC[C@@H](c1ccc(O)c(O)c1)[C@@H](CC)c1ccc(O)c(O)c1 | 77.8 µM | 30.7 µM
63 | CC(=O)[O-].CC(=O)[O-].O=C(N/N=C/c1cc(Cl)cc(Cl)c1O)c1ccncc1.[Cu+2] | > 100 µM | > 100 µM
64 | C#Cc1cccc(Nc2nc3cc([N+](=O)[O-])ccc3nc2Nc2ccc(O)cc2)c1 | 4.36 µM | 2.07 µM
65 | O=C(Nc1nc(=S)[nH][nH]1)C(=O)C(C(=O)c1ccc2ccccc2c1)C1OC(=O)c2ccccc21 (stereo unspecified) | 53.2 µM | –
66 | Cc1nnc2ccnn2c1C | > 100 µM | > 100 µM
67 | CCOC(=O)C1=C(C)N(NC(=O)Nc2ccccc2)C2(N)N(NC(=O)Nc3ccccc3)C(C)=C(C(=O)OCC)C12C(=O)OCC (stereo unspecified) | > 100 µM | –
68 | Cn1cc(-c2cc3c(N4CCN(c5ncc([C@@](C)(N)c6ccc(F)cc6)cn5)CC4)ncnn3c2)cn1 | > 100 µM | 25.4 µM
69 | O=C(O)CSc1n[nH]c(-c2ccccc2O)n1 | > 100 µM | –
70 | Cc1nc(-c2nc(C)c(C(=O)NNC(=O)C[n+]3ccccc3)s2)sc1C(=O)NNC(=O)C[n+]1ccccc1 | > 100 µM | –
71 | CN(C)C=Nc1nc(=O)n(C2CCC(CO)O2)cc1F (stereo unspecified) | > 100 µM | –
72 | O=c1[nH]c(-c2ccccc2)nc2cc(Cl)ccc12 | > 100 µM | –
73 | Cc1ccc(S(=O)(=O)N2CCC2c2ccccc2)cc1 (stereo unspecified) | > 100 µM | –
74 | CCCOc1nc(N)c2cnn(C3CCCCO3)c2n1 (stereo unspecified) | > 100 µM | –
75 | C/C(CN1C(=O)c2ccccc2C1=O)=N\NS(=O)(=O)c1ccc(Cl)cc1 | > 100 µM | –
76 | O=C(Nc1cccc(C(F)(F)F)c1)Nc1cccc(C(F)(F)F)c1 | 4.73 µM | 1.84 µM
77 | COc1ccc(/C=C/COC(C)=O)cc1OC | > 100 µM | –
